Entries after “also recorded” stand apart in the source; their conditions may differ.
What was measured:
[1] = tested on: mice ascitic Krebs-2 carcinoma; assay: Antitumor effect of topotecan with compounds in vivo, ascitic Krebs-2 carcinoma model; details: C57Bl/6 mice; for Tumor mass (ascites weight) and number of tumor cells, combination with Tpc compared to only Tpc: Tpc 1 mg/kg + compound 100 mg/kg i/p once on day 4, 6d p = 0.0018
Description: The effect of compounds 5f, 6c and 6d on the effectiveness of Tpc was studied in vivo on a mice ascitic Krebs-2 carcinoma model. Krebs-2 carcinoma can be transplanted into mice of various genetic constitutions. […] This model combines the advantages of in vitro and in vivo approaches to study the cytotoxic effects of compounds, since ascites cells grow in the environment of the body (in vivo), and intraperitoneal administration of the drug ensures its direct contact with tumor cells (in vitro), bypassing absorption, delivery to the tumor, possible transformations, etc.
During the experiment, mice were injected intraperitoneally with 2 × 10^6 ascites cells, after that a liquid ascites tumor grew at the site of inoculation.
The effect of drugs on the tumor was assessed at the end of the experiment by the weight of the ascitic tumor (the difference in the weight of the mouse with the tumor and after tumor removal), as well as by the number of tumor cells in the ascites.
Three- to four-month-old male and female C57Bl/6 mice (19–21 g) from the breeding colony of the Institute of Cytology and Genetics, SB RAS, Novosibirsk, Russia, were used in the study. The animals were kept on sawdust in plastic cages of 5–7 mice per cage with free access to ground food (“Laboratorkorm”, Moscow, Russia) and tap water. All procedures with the mice were performed in accordance with the international rules for experiments on animals [European Communities Directive (86/609 EEC)].
The experimental tumor model was transplantable Krebs-2 carcinoma obtained from the cell depository of the Institute of Cytology and Genetics SB RAS (Novosibirsk, Russia) and was maintained in mice as a transplanted tumor. Krebs-2 was obtained from epithelial cells of the abdominal wall of a mouse. Krebs-2 carcinoma is nonspecific in its host requirements and can be grafted into mice with any genetic context. With intraperitoneal inoculation, it forms an ascites form.
The antitumor effect was assessed by the weight of the ascites and by the number of tumor cells in ascites. The weight of Krebs-2 ascites was assessed by the difference in the weight of mice before and after the removal of ascites. The number of tumor cells in ascites was determined using a hemocytometer Goryaev camera. In autopsied mice, the weights of liver, lung, heart, kidneys, and spleen were assessed as well as the tumor and body weights.
The animals were treated once in total dose of Tpc 1 mg/kg and Tdp1 inhibitor (5f, 6c or 6d) 100 mg/kg. We started the treatment on the fourth day after the tumor was inoculated, with the expectation that it had just begun to form. […] The animals were euthanized eight days after the transplantation and the compound effect on mice was evaluated by measuring the tumor weight and number of tumor cells in ascites.

HeLa cells = assay: Effect of compounds on topotecan cytotoxicity (EZ4U test); type: cell-based, human; details: compound 10 μM in combination with Tpc
Description: Tdp1 inhibitors are intended to be used in therapeutic cocktails to sensitize tumors to the action of anticancer Top1 poisons. […] To assess the toxicity of the compounds, their effect on the survival of the HeLa cell line (human cervical cancer) was studied using the colorimetric test of metabolic activity of cells EZ4U, which reflects the survival of cells in the presence of the studied compounds. The EZ4U assay is based on the ability of living cells to reduce the colorless tetrazolium salt XTT [sodium 3,3′-{1-(phenylamino)-carbonyl-3,4-tetrazolium) -bis(4-methoxy-6-nitro)-benzene sulfonic acid hydrate] to an orange water-soluble formazan product. This method was used to investigate the intrinsic cytotoxicity of promising inhibitors discovered in the course of this work, as well as the toxicity of their combination with Tpc.
As already mentioned, we expected to increase the efficacy and/or reduce the dosage of Tpc with Tdp1 inhibitors. To do this, we studied the effect of nucleoside derivatives on Tpc cytotoxicity. […] We attribute this to the probable presence of protein targets other than Tdp1 in the cell.
Cytotoxicity of the compounds was examined on human cell lines HeLa using an EZ4U colorimetric test (Biomedica, Vienna, Austria). The HeLa cell line was obtained from the Russian Cell Culture Collection (RCCC) Institute of Cytology RAS, St. Petersburg, Russia. The cells were grown in DMEM/F12 medium (Gibco, Thermo Fisher Scientific, Waltham, MA, USA), with 1x GlutaMAX (Gibco, Thermo Fisher Scientific, Waltham, MA, USA), 50 IU/mL penicillin, 50 μg/mL streptomycin (MP Biomedicals), and in the presence of 10% fetal bovine serum (Biolot, Saint-Petersburg, Russia) in a 5% CO2 atmosphere. Since lipophilic nucleosides are soluble in DMSO, cells were grown in the presence of 1% DMSO in the control wells. After the formation of a 30–50% monolayer, the tested compounds were added to the medium, and the cell culture was monitored for 3 days. The values were normalized to their own control in each case. At least three independent experiments were carried out. The 50% cytotoxic concentration (CC50) was defined as the compound concentration that reduced the cell viability by 50% when compared to the untreated controls. The CC50 value was determined using OriginPro 8.6.0 software (OriginLab, Northampton, MA, USA). The measurements were carried out in three independent experiments.

human recombinant PARP1 = target: T1, human recombinant PARP1 (Homo sapiens, UniProt P09874); assay: PARP1 activity by inclusion of α-[32P]-NAD+ in poly(ADP-ribose); type: biochemical; details: in the presence of 1 mM compound; read-out: Residual activity of PARP1
T1 construct: made in house
T1 sequence (P09874 whole entry): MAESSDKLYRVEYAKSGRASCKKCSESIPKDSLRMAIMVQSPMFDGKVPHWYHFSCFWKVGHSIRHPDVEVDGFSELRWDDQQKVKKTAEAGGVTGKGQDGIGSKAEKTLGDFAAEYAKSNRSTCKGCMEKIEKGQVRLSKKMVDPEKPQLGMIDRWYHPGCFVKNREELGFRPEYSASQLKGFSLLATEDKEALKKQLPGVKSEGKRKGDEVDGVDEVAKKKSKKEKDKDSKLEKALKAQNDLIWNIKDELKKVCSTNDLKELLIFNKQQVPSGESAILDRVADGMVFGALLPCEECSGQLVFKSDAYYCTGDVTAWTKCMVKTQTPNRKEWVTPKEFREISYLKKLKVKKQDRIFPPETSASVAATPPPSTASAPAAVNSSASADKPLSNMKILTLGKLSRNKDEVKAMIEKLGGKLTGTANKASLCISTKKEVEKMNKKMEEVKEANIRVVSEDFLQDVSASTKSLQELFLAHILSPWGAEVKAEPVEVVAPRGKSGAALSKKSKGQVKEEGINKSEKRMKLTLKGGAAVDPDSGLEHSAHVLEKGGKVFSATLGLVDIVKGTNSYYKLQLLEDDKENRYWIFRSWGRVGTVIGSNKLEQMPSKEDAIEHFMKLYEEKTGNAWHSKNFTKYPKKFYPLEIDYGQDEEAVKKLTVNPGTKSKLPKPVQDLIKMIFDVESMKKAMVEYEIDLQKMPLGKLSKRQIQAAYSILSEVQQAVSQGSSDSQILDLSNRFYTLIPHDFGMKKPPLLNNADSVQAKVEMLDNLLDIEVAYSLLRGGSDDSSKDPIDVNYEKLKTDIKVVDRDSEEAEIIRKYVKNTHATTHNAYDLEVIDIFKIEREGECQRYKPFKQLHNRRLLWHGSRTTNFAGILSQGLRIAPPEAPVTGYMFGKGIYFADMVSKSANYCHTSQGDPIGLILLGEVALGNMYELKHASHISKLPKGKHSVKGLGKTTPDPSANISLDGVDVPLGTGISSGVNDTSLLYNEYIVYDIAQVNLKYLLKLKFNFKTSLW
Experimental: Since it has previously been shown that nucleoside derivatives can inhibit enzymes of the PARP family, we also checked whether the studied compounds were able to inhibit the enzymes PARP1 and PARP2. […] Thus, when using our compounds, one cannot expect side effects from PARP1/2.
Purified human recombinant PARP1/2 [65] and [^32P] NAD^+ [27] were prepared as described earlier. The activity of PARP1/2 was evaluated by the rate of incorporation of the radioactive label into the acid-insoluble reaction product—PAR as described previously.

Compound | Tumor mass (ascites weight) and number of tumor cells, combination with Tpc compared to only Tpc [1] | Enhancement of Tpc Cytotoxicity by 10 μM Compounds (HeLa cells) [Times] | remaining activity at 1000 µM (human recombinant PARP1) [%] | Tumor mass (ascites weight) and number of tumor cells, compound alone ([1]; compound 100 mg/kg i/p once on day 4, 100 mg/kg)
O[C@@H]1[C@H](O)[C@@H](COC(c2ccccc2)(c2ccccc2)c2ccccc2)O[C@H]1n1cnc2c(NC(c3ccccc3)(c3ccccc3)c3ccccc3)ncnc21 [compound 5f] | no sensitizing effect; also recorded: did not result in a reliable decrease | 1.7 | 100 ± 10 | –
O=C(OC[C@H]1O[C@@H](n2cnc3c(Cl)nc(F)nc32)[C@H](OC(=O)c2ccccc2)[C@@H]1OC(=O)c1ccccc1)c1ccccc1 [compound 6c, 2-Fluoro-6-chloro-9-(2,3,5-tri-O-benzoyl-β-D-ribofuranosyl)purine] | did not obtain the sensitizing effect; also recorded: did not result in a reliable decrease | 6.5 | 82 ± 17 | –
O=C(OC[C@H]1O[C@@H](n2cnc3c(Cl)nc(Cl)nc32)[C@H](OC(=O)c2ccccc2)[C@@H]1OC(=O)c1ccccc1)c1ccccc1 [compound 6d, 2,6-dichloro-9-(2,3,5-tri-O-benzoyl-β-D-ribofuranosyl)purine] | significant decrease; also recorded: synergistic decrease of tumor size | 4.8 | 96 ± 12 | did not affect this parameter; also recorded: did not affect tumor growth
